Measurements published in patent EP0421419A2, “Tocotrienols in the treatment of hypercholesterolemia, hyperlipidemia and thromboembolic disorders” (Bristol-Myers Squibb Company, priority 1989, dated 1991).
≈ marks a conversion by molar mass, not a printed value. Like-named read-outs stand apart in the source and are kept apart here.

Experiments:
Hepatic HMGCoA Reductase = assay: Acute rat HMGCoA reductase suppression model; format: in vivo; details: four hours after administration; for Hepatic HMGCoA Reductase Activity (mean ± SEM): 195 µmol/kg (equivalent to 80 mg/kg Example 24) intragastric in olive oil, vehicle control 479 ± 88; for Hepatic HMGCoA Reductase Activity % of Control: 195 µmol/kg intragastric in olive oil
Method: Using an acute rate model for suppression of hepatic HMGCoA reductase, the effectiveness of three forms of d,l-γ-tocotrienol were compared in vivo. In this assay system, the test agents were administered by intragastric intubation as solutions dissolved in olive oil vehicle. Four hours after administration of test agents, rat liver HMGCoA reductase total activity levels were determined by standard techniques in this laboratory. […]

[1] = system: Cholesterol Synthesis in HepG2 Cells; assay: HepG2 cell culture model, 14C-acetate incorporation assay; format: cell-based, human; details: for Rel. Potency: γ-Tocotrienol = 1.0; for IC50: read-out: IC₅₀; for inhibition at 10 µM / % Inhibition 14C-Ac: about 4 hours, 10 µM; for inhibition at 10 µM: read-out: % Inhibition 14C-Ac
Method: HepG2 cells obtained from the American Type Culture Collection were routinely passaged in RPMI-1640 plus 10% fetal bovine serum (FBS) and were subcultured into 35 mm diameter wells for experiments. […] The LDS medium supplement was prepared according to Cham et al., J. Lipid Res., 17: 176-181, (1976). After about 16 hours in LDS containing media, test compounds were added in dimetthylsulfoxide vehicle (0.5% v/v final conc.) for the period of time indicated in the data (generally 4 hours). Cholesterol synthesis was then directly determined by the incorporation of 2-14C-acetate (1.8-3.0 mCi/mmol) into digitonin-precipitable sterols essentially as described for the rat hepatocyte methol above. Greater than 97% of the radiolabelled sterol isolated by this procedure was cholesterol as judged by HPLC. Percent inhibition was calculated from the average of duplicates or triplicates vs. controls receiving vehicle.
(§1) The human hepatoma HepG2 cell culture model was employed to compare the intrinsic activities of the tocotrienols. HepG2 cells were incubated with the indicated compounds for about 4 hours at 10 µM. Cholestrol synthesis was assayed by 14C-acetate incorporation and HMG-CoA reductase suppression was assayed in the isolated microsomal fraction. Cholesterol synthesis inhibition was assayed by 14C-acetate incorporation after preincubation of HepG2 cells with the compounds for about 2 hours or about 4 hours (Example IV). […] As the data in Figure 1 indicate, gamma-tocotrienol has an even greater relative potency compared to alpha-tocotrienol in the HepG2 cell model than in rat hepatocytes. The IC50s from these studies are given in Table 3, in which it can be seen that the intrinsic potency of gamma-tocotrienol is over 30-fold greater than that of alpha-tocotrienol.

[2] = Pure gamma-tocotrienol capsules in hypercholesterolemic human subjects; format: in vivo; details: capsules 50 mg/capsule, after 4 weeks of feeding; serum cholesterol levels 302.5 mg/dl
[3] = system: Cholesterol Synthesis in Isolated Rat Hepatocytes; assay: Rat hepatocyte cholesterol biosynthesis model (14C-acetate incorporation into digitonin-precipitable sterols); format: cell-based; details: for inhibition at 210 µg/mL: 210 µg/ml (approx. 500 µM), 60 min 14C-acetate incorporation, 0.2% Tween-80; for inhibition at 250 µg/mL: read-out: % Inhibition at µg/ml conc: 250; for inhibition at 500 µg/mL: read-out: % Inhibition at µg/ml conc: 500; for IC50: read-out: IC₅₀
Method: Primary rat parenchymal hepatocytes were prepared from male Wistar rats (180-220 g) at mid-dark in the diurnal cycle by standard collagenase perfusion method as described previously. Ingebritsen et al. J. Biol. Chem., 254: 9986-9989, (1979). Aliquots of cells were suspended (100 mg in 2 ml) in Eagle's minimum essential medium (MEM) supplemented with 2% bovine albumin, and preincubated in a shaking water bath at about 37° under 95% O₂/5% CO₂ with compounds added as given in the data. […] Following a preincubation of about 15 to about 45 minutes as indicated, cholesterol synthesis in intact cells was assayed by 2-14C-acetate (1.8 mCi/mmol, 0.5 µCi/ml) incorporation for about 30 to about 60 minutes (previously shown to be time-linear) into total digitonin-precipitable sterols. […] Percent inhibition was calculated from the average of duplicates vs. triplicate vehicle controls conducted simultaneously.
The primary rat hepatocyte assay for cholesterol bio-synthesis inhibition was conducted as described in Example 2 except the preincubation was about 45 minutes and the 14C-acetate incorporation was about 30 minutes. The indicated compounds were purified from the same natural product source as the mixture used in Example 2. […] Two-component mixtures of the constituents separated from the tocotrienol mixture were tested under the conditions indentical to Table 2A.

platelet aggregation = assay: Rabbit biolaser ear chamber antithrombotic model; format: in vivo; details: 100mg/kg oral
Method: The antithrombotic properties of gamma-tocotrienol were evaluated in a rabbit biolaser ear chamber model. Fasted rabbits were orally dosed with either vehicle or vehicle plus gamma-tocotrienol at 100mg/kg. An erythrocyte contained within a capillary, near the ear surface, is ruptured with a laser shot, thereby releasing platelet aggregating ADP. gamma-Tocotrienol inhibited platelet aggregation 37% at about 2 hours after oral dosing, 44% after about 4 hours and 25% after about 6 hours as measured by averaging the mean thrombus area over 10 trials.

Lipid Metabolism = assay: Lipid metabolism in normocholesterolemic chickens fed compound in diet; format: in vivo; details: CCD + 20 ppm per head (text: 50 ppm)
HMG-CoA reductase = assay: HepG2 cell culture model, HMG-CoA reductase suppression assay; format: cell-based, human; details: 10 µM, about 4 hours, HepG2 cells
Method: HMG-CoA reductase suppression in HepG2 cells was conducted by growing cells in RPMT-1640 plus 10% FBS on 100 mm plates, and when cells reached approximately 75% confluency, inducing with LDS (as described above) for about 16 hours prior to assays. Compounds were added using dimethylsulfoxide vehicle (0.5% v/v, final) and after about 4 hours of incubation at 37°, cells were harvested by scraping. Cell pellets were rinsed and lysed by sonication in 1.7 ml cold 50 mM imidazole-HCL, pH 7.2, 50 mM NaCl, 10 mM EDTA, 10 mM EGTA, 5 mM DTT, and 40µM leupeptin). Lysates were centriguged at 150 x g and the supernatant was centrifuged at 100,000 x g in a Beckman airfuge to isolate the post-nuclear total membrane fraction. The membranes were resuspended in 50 mM imidazole-HCl, pH 7.2, 250 mM NaCl, 5 mM DTT, and 20µM leupeptin and used for the assay of HMG-CoA reductase activity by the radiochemical procedure as described previously by Parker et al., J. Biol. Chem., 264: 4877-4887, (1989). Values were normalized for protein content by the Lowry method as cited previously (ibid). HMG-CoA reductase percent suppression was calculated as the decrease in specific activity of HMG-CoA reductase for treated cells vs. controls receiving vehicle. Averages of duplicate cell determinations assayed in duplicate were taken.
as §1
The mechanism of cholesterol synthesis inhibition by tocotrienols involves down regulation of the limiting enzyme of sterol synthesis, HMG-CoA reductase. […] The suppression of HMG-CoA reductase protein expression by gamma-tocotrienol and delta-tocotrienol in HepG2 cells and in rat liver has been confirmed by immunoassy using the Western blot technique (data not shown).

[4] = Rattus norvegicus, Hepatocyte, 15 min preincubation
[5] = Rattus norvegicus, Hepatocyte, Expt. # 1, 45 min preincubation, 30 min incorporation
[6] = Rattus norvegicus, Hepatocyte, Expt. # 2, 45 min preincubation, 30 min incorporation

With `CC(=O)Oc1cc2c(c(C)c1C)OC(C)(CC/C=C(\C)CC/C=C(\C)CCC=C(C)C)CC2` (racemic) [Ex. 33, 3,4-Dihydro-2,7,8-Trimethyl-2-(4,8,12-Trimethyltrideca-3(E),7(E), 11-trienyl)-2H-1-Benzopyran-6-Yl Acetate] the “Hepatic HMGCoA Reductase Activity (mean ± SEM)” value (Hepatic HMGCoA Reductase) was 236 ± 23 mU/mg and the “Hepatic HMGCoA Reductase Activity % of Control” value (Hepatic HMGCoA Reductase) was 49%.

With `CC(C)=CCC/C(C)=C/CC/C(C)=C/CCC1(C)CCc2cc(O)c(C)c(C)c2O1` (stereo not shown) [γ-Tocotrienol] the “Rel. Potency” value ([1]; 2 hr. Incubation) was 1.0, the “Rel. Potency” value ([1]; 4 hr. Incubation) was 1.0 and the IC50 ([1]; Homo sapiens, HepG2, 2 hr. Incubation) was 5.9 µM. For the same compound, the IC50 ([1]; Homo sapiens, HepG2, 4 hr. Incubation) was 2.8 µM, the “intrinsic potency greater than that of alpha-tocotrienol” value ([1]; from IC50s of Table 3) was “over 30 fold” and the “decrease in serum cholesterol levels” value [2] was 35%. The “times more active than alpha-tocotrienol” value ([3]; rat and chicken hepatocyte system) was “at least 5 times”, the inhibited platelet aggregation (platelet aggregation; about 2 hours after dosing, mean thrombus area over 10 trials) was 37% and the inhibited platelet aggregation (platelet aggregation; about 4 hours after dosing) was 44%. It also gave an inhibited platelet aggregation (platelet aggregation; about 6 hours after dosing) of 25%.

In the case of α-Tocotrienol [reference compound], the IC50 ([1]; 2 hr. Incubation) is reported as 380 µM, the “Rel. Potency” value ([1]; 2 hr. Incubation) is reported as 0.02 and the IC50 ([1]; 4 hr. Incubation) is reported as 94 µM. The “Rel. Potency” value ([1]; 4 hr. Incubation) was 0.03.

For `Cc1c(C)c2c(c(C)c1O)CC[C@@](C)(CCC[C@H](C)CCC[C@H](C)CCCC(C)C)O2` [d-α-tocopherol, reference compound], the IC₅₀ ([3]; Expt. # 1, 45 min preincubation, 30 min incorporation) was “no inhib”, the inhibition at 210 µg/mL [3, 4] was 0% and the inhibition at 250 µg/mL [3, 5] was 0%. It also gave an inhibition at 250 µg/mL [3, 6] of 0%, an inhibition at 500 µg/mL [3, 5] of 2% and an inhibition at 500 µg/mL [3, 6] of 0%.

In the case of `CC(C)=CCC/C(C)=C/CC/C(C)=C/CCC1(C)CCc2cc(O)c(C)c(C)c2O1` (racemic) [Ex. 24, 3,4-dihydro-2,7,8-trimethyl-2-(4,8,12-trimethyltrideca-3(E),7(E),11-trienyl)-2H-1-benzopyran-6-ol], the inhibition at 10 µM ([1]; Homo sapiens, HepG2) is reported as 75%, the “Hepatic HMGCoA Reductase Activity (mean ± SEM)” value (Hepatic HMGCoA Reductase) is reported as 266 ± 24 mU/mg and the “Hepatic HMGCoA Reductase Activity % of Control” value (Hepatic HMGCoA Reductase) is reported as 56%. For the same compound, the “Serum Cholesterol” value (Lipid Metabolism; Table 6, synthetic compound, 4 weeks, control 158.8(±9.0)) was 121.2(±2.2) mg/dl, the “HDL-Cholesterol [% of Control]” value (Lipid Metabolism; Table 6) was 87.0% and the “LDL-Cholesterol [% of Control]” value (Lipid Metabolism; Table 6) was 54.8%. The “Serum Cholesterol [% of Control]” value (Lipid Metabolism; Table 6) was 76.3%, the “Serum Triglycerides [% of Control]” value (Lipid Metabolism; Table 6) was 100.7% and the HDL/LDL (Lipid Metabolism; Table 6, control 1.938) was 3.080. For the same compound, the LDL-Cholesterol (Lipid Metabolism; Table 6, control 52.8 (±1.1)) was 28.9(±1.2) mg/dl, the “Serum Triglycerides” value (Lipid Metabolism; Table 6, control 63.4(±2.1)) was 63.9(±1.6) mg/dl and the HDL-Cholesterol (Lipid Metabolism; Table 6, control 102.3(±3.0)) was 89.0(±2.9) mg/dl. For the same compound, the “% Suppression HMG-CoA Reductase” value (HMG-CoA reductase) was 65%.

For `CC(C)=CCC/C(C)=C/CC/C(C)=C/CCC1(C)CCc2c(C)c(O)c(C)c(C)c2O1` (racemic) [d,1-α-tocotrienol, 3,4-dihydro-2,5,7,8-tetramethyl-2-(4,8,12-trimethyltrideca-3(E),7(E),11-trienyl)-2H-1-benzopyran-6-ol, reference compound], the inhibition at 10 µM ([1]; Homo sapiens, HepG2) was 20%, the inhibition at 41 µg/mL ([3]; Rattus norvegicus, Hepatocyte, 41 µg/ml (approx. 100 µM), 15 min preincubation, 60 min incorporation) was 4% and the inhibition at 210 µg/mL [3, 4] was 17%. For the same compound, the “% Suppression HMG-CoA Reductase” value (HMG-CoA reductase) was 19%.

For `CC(C)=CCC/C(C)=C/CC/C(C)=C/CC[C@]1(C)CCc2c(C)c(O)c(C)c(C)c2O1` [d-α-tocotrienol, reference compound], the inhibition at 125 µg/mL ([3]; Rattus norvegicus, Hepatocyte, 125 µg/ml, Expt. # 2, 45 min preincubation, 30 min incorporation, read-out: % Inhibition at µg/ml conc: 125) was 8%, the inhibition at 250 µg/mL [3, 5] was 8% and the inhibition at 250 µg/mL [3, 6] was 20%. It also gave an inhibition at 500 µg/mL [3, 5] of 12%, an inhibition at 500 µg/mL [3, 6] of 33% and an IC50 [3, 5] greater than 1000 µg/mL. It also gave an IC50 [3, 6] of 1300 µg/mL (≈ 3.06 mM).

With `CC(C)=CCC/C(C)=C/CC/C(C)=C/CCC1(C)CCc2cc(OC(=O)c3cccnc3)c(C)c(C)c2O1` (racemic) [Ex. 34, 3,4-Dihydro-2,7,8-Trimethyl-2-(4,8,12-Trimethyl 3(E), 7(E),11-tridecatrienyl)-2H-1 Benzopyran-6-Yl-3-Pyridine Carboxylate] the “Hepatic HMGCoA Reductase Activity (mean ± SEM)” value (Hepatic HMGCoA Reductase) was 156 ± 21 mU/mg and the “Hepatic HMGCoA Reductase Activity % of Control” value (Hepatic HMGCoA Reductase) was 33%.

With “3,4-dihydro-2-methyl-2-(4,8,12-trimethyltrideca-3(E),7(E),11-trienyl)-2H-1-benzopyran-6-ol [d,1-Tocotrienol]” the “% Inhibition 14C-Ac” value [1] was 69% and the “% Suppression HMG-CoA Reductase” value (HMG-CoA reductase) was 62%.

For γ-Tocopherol [reference compound], the “% Inhibition 14C-Ac” value [1] was 3% and the “% Suppression HMG-CoA Reductase” value (HMG-CoA reductase) was 0%.
